Source: PMC9065145, “Open label safety and efficacy pilot to study mitigation of equine recurrent uveitis through topical suppressor of cytokine signaling-1 mimetic peptide” (Scientific Reports, 2022)
Read-outs that look alike come from different tables or passages of the source. Ends that are not written are not given here. palmitoyl‑Lys = palmitoyl-lysine

Columns and labels:
[1] = system: experimentally induced uveitis; set-up: method as in PMID 27703302, PMID 26094775; conditions: rats, topical application as simple eye drop; cited from earlier work
[2] = system: equine recurrent uveitis (ERU); type: in vivo, horse; conditions: for Response to mimetic: symbols not defined
Description: A priori ERU patients with confirmed ERU but lacking severe ophthalmic decrements (evidence of chronicity), were optimal for enrollment in clinical trial. However, given the unmet need presented by ERU, horses with uncontrolled ERU-mediated inflammation were also enrolled (even with ophthalmic decrement), given that peptide efficacy could be assessed. Reduction in hyperemia was established as the primary endpoint evaluation of peptide efficacy. A priori power analysis established that nine patients would be required to assess a significant decrease in hyperemia, based on historical data from the institution. Ten total patients were enrolled through direct contact with Dr. Plummer. […] No exclusions were made, with all participants noted in Table 1. All procedures were conducted on equine patients subsequent to owner consent.
Ten horses (7 geldings and 3 mares) diagnosed with ERU were enrolled in a short-term, open-label trial to assess the efficacy of topical SOCS1 KIR. The administration of the SOCS1 KIR peptide was in the context of a therapeutic treatment. The horses of varied breed (appaloosa, quarter horse, miniature, and paint- aged 5–21) enrolled in the trial, presenting with acute or insidious disease, were admitted into the University of Florida Veterinary Hospital for 4–7 days to begin treatments with topical SOCS1 KIR. The horses admitted to the clinic were closely evaluated for efficacy and possible negative effects of the treatment. Examinations included intraocular pressure measurement, slit lamp biomicroscopy, and direct and indirect ophthalmoscopy as possible. 200 µg of SOCS1 KIR was administered in 100 µL topically, which was a small volume that prevented reflex tear formation and possible peptide elimination. Seven of 10 patients presented with bilateral disease for a total evaluation of 17 eyes to assess peptide efficacy (Table 1). After hospitalization, ERU patients were returned to their owners, who continued peptide administration from home. The horses underwent complete physical and ophthalmic examinations at day 0, day 3, day 14, and day 42. During the ophthalmic examinations, the horses were scored for discomfort, hyperemia, and aqueous flare using a modified MacDonald-Shadduck System[35] by both the attending veterinary ophthalmologist and four additional masked veterinary ophthalmologists. Safety outcomes at each observation period included: (i) ocular irritation scores (utilizing the modified MacDonald-Shadduck scoring system-); (ii) number of new cases of ocular infections; (iii) number of horses affected with peptide-mediated damage to the eye; (iv) intraocular pressure (mmHg); and (v) ERG b-wave amplitudes to assess retinal function.
Specific rationale is as follows: Given the novelty of the use of topical SOCS1-mimetic peptide, the administration of peptide in this pilot study was ethically conducted in open-label fashion, without randomization, so that rescue medications could be administered, if necessary. […] A single investigator (C.P.) was aware of the drug allocations and the results of clinical evaluations. However, 4 masked veterinarians were utilized to obtain the clinical scoring obtained in Fig. 4E. Given the open enrollment utilized in this pilot study and the administration of drug by patient owners at home, confounders could not be controlled. Placebo medications were not utilized, although SOCS1 mimetic peptide was provided as compassionate use as specific owners noted symptom resumption during drug dry out period (not statistically analyzed).
Experimental data are presented as mean ± standard error of the mean […]. All statistical analyses were performed using GraphPad Prism version 8 software (GraphPad Software, La Jolla, CA, USA). For the in vivo assessment of ERU recovery, paired students t tests were utilized. The data were deemed statistically significant if P ≤ 0.05. […]

[3] = system: pJAK2 (1001–1013) peptide; test: Competitive inhibition binding assay; conditions: 5 µg/mL biotinylated pJAK2 pre-incubated with increasing soluble SOCS1-KIR (8-500, printed mg/mL), RT, then direct binding assay; semi-logarithmic fit R2 ≥ 0.95; n = 3
Description: Direct binding assays were performed at room temperature (RT) for 2 h as previously described[34] with modifications. Briefly, Polystyrene 96-well flat bottom plates were seeded with SOCS1 KIR peptide (500 µg/mL) in 0.05 M carbonate-bicarbonate buffer (pH 9.6). The plates were washed 4 times in the wash buffer (Phosphate-buffered saline in 0.05% Tween-20) followed by incubation for 2 h in blocking buffer (3% bovine serum albumin (BSA), 3 mM ethylenediaminetetraacetic acid (EDTA), 0.1% gelatin, and 0.05% Tween 20) and then washed 4 times. Serial dilutions of biotinylated phosphorylated JAK2 (pJAK2) in assay diluent (2% BSA, 3 mM EDTA, 0.01% gelatin, and 0.05% Tween 20) (10, 5, 2.5, 1.25, 0.625, 0.312 µg/mL) were then added to the coated plates for 90 min followed by washing 7 times. Streptavidin- horseradish peroxidase (1:4000, HRP) [BD Biosciences, Cat# 554066] was then added for 30 min followed by 12 wash cycles. Finally, 100 µL 3,3′,5,5′-Tetramethylbenzidine (TMB) substrate [BD Biosciences, Cat# 555214] was added for 30 min followed by assessment with spectrophotometer readings at an absorbance of 450 nm. For competitive Inhibition assays, 5 µg/mL biotinylated pJAK2 was pre-incubated with varying concentrations of SOCS1-KIR ([…]) for 1 h at RT prior and then, a direct binding assay was performed. […]

[4] = system: experimental autoimmune encephalomyelitis (a rodent model of multiple sclerosis); set-up: method as in PMID 21788442, PMID 21131060, PMID 33737712; conditions: peritoneal administration; cited from earlier work
[5] = system: experimentally induced uveitis; set-up: method as in PMID 27703302, PMID 26094775; conditions: mice, topical application as simple eye drop; cited from earlier work
SOCS1-/- mice = conditions: cited from earlier work
Description: (§1) Many of the uveal tract destructive cytokines produced by infiltrating T lymphocytes are dependent on Jak2 for either production or signal transduction[38],[46]. […] Endogenous SOCS1 binds to the activation loop of JAK2, inhibit ...

[6] = system: lupus pathologies in preclinical models; conditions: cited from earlier work
Description: as §1

induced uveitis = conditions: cited from earlier work
[7] = biological target: T1, pJAK2 activation loop peptide (Equus caballus); test: ELISA-type direct plate binding assay
T1 chain: LPQDKEYYKVKEP

[8] = ERU horses, topical, not reaching statistical significance

DTHFRTFRSHSDYRRI [SOCS1-KIR]
experimentally induced uveitis [1]: mitigated experimentally induced uveitis
resolution of inflammatory processes coinciding with administration (number of horses) ([2]; ERU horses other than patient 2, 4 horses also received diclofenac and/or atropine): eight of the remaining 9 horses
reduction in clinical scoring, masked veterinary scoring of ocular photographs ([2]; ERU horses, by 6 weeks of topical treatment, four masked veterinarians, n = 8, statistically significant): 75%
patients responsive to administration as a monotherapy ([2]; ERU horses, topical): four of the ten patients
reduction in hyperemia clinical scoring ([2]; ERU horses, topical 200 µg in 100 µl twice a day, 6-week evaluation, modified MacDonald-Shadduck score, n = 14 eyes, p < 0.01, paired t test): 40%
reduction in aqueous flare ([2]; ERU horses, topical 200 µg in 100 µl twice a day, 6 weeks, modified MacDonald-Shadduck score, n = 14, p < 0.01): 50%
reduction in overall discomfort ([2]; ERU horses, topical 200 µg in 100 µl twice a day, 6 weeks, n = 8, eyes without discomfort omitted, p < 0.05): near complete reduction
hypopyon [2, 8]: consistent improvements
intraocular pressure [2, 8]: consistent improvements
patients refractory to mimetic treatment ([2]; ERU horses, the refractory patients had severe disease): 3/10
Response to mimetic ([2]; PT1: Appaloosa gelding, 21 years, severe disease, blind OS, bilateral, plus diclofenac/atropine, 9 months): + +
Response to mimetic dryout period ([2]; PT1: severe disease, plus diclofenac/atropine): yes
Response to mimetic ([2]; Pt 3: Miniature gelding, 16 years, severe disease, bilateral, monotherapy, lost to followup): + + +
Response to mimetic ([2]; Pt 4: Paint mare, 16 years, moderate disease, plus atropine, 2 months): + + +
Response to mimetic ([2]; Pt 5: Appaloosa gelding, 17 years, mild disease, bilateral, monotherapy, 8 months): + + +
Response to mimetic dryout period ([2]; Pt 5: mild disease, monotherapy): yes
Response to mimetic ([2]; Pt 7: Appaloosa gelding, 16 years, mild, bilateral, monotherapy, 3 months): + + +
Response to mimetic dryout period ([2]; Pt 7: mild, monotherapy): yes
Response to mimetic ([2]; Pt 9: Appaloosa mare, 14 years, moderate disease, bilateral, plus diclofenac/atropine, 8 months): + + +
Response to mimetic dryout period ([2]; Pt 9: moderate disease, plus diclofenac/atropine): yes
drug related negative events, long-term use ([2]; in vivo): no observed drug related negative events
systemic immune suppression ([2]; in vivo): no observed systemic immune suppression
discomfort and inflammation when treatment was resumed (compassionate use) ([2]; owner-noted, after return of inflammation in the peptide dry-out period, four owners, not quantitated): subsequent decreases in discomfort and inflammation
clinical improvement, patient 2 ([2]; severe ERU, minimal sight in one eye, SOCS1-KIR 2 mg/ml topical, inflammation persisted, euthanised): very modest clinical improvement
signal intensity of pJak2 (1001–1013) binding to plate bound SOCS1-KIR peptide [3]: semi-logarithmic decrease in the signal intensity
progression of experimental autoimmune encephalomyelitis [4]: inhibited progression of experimental autoimmune encephalomyelitis
experimentally induced uveitis [5]: mitigated experimentally induced uveitis
perinatal lethality of SOCS1-/- mice (SOCS1-/- mice; peritoneal administration): rescued SOCS1-/- mice from perinatal lethality
circulating memory T cells and Foxp3 high T lymphocytes (SOCS1-/- mice; rodent model of SOCS1 genetic deficiency, peritoneal injection): decreased circulating memory T cells and increased Foxp3 high T lymphocytes
lupus pathologies ([6]; peritoneal administration, preclinical models): reduced lupus pathologies
circulating memory T cells and Foxp3 high T lymphocytes ([6]; spontaneous lupus model, peritoneal injection): decreased circulating memory T cells and increased Foxp3 high T lymphocytes
chemokines CCL2, CCL20 and CXCL9 and chemokine receptors CCR2, CCR4, CCR6 and CXCR3 (induced uveitis; induced uveitis rodent studies): decreases
TH1- and TH17-associated cytokines and IL-10 (induced uveitis; rodent models of uveitis, topical administration to the eye): suppresses both TH1- and TH17- associated cytokines, while promoting the production of IL-10

B1: SOCS1-KIR mimetic peptide (peptide)
chain: {palmitoyl‑Lys}-DTHFRTFRSHSDYRRI
Kd [7]: 1.7 µM
